Assay [1] has as its system Nicotiana tabacum. In words: Inhibition of colored carotenoid formation in Nicotiana tabacum (tobacco). It is filed as functional, organism-based. The settings on record: read-out: I50.
Assay [2] deals with Nicotiana tabacum. In words: Inhibition of colored carotenoid formation in transgenic Nicotiana tabacum (tobacco) ET4-208. It is filed as functional, organism-based. The settings on record: read-out: I50.
Assay [3] relates to Pantoea ananatis. As to the kind of experiment: Resistance factor, ratio of I50 for Pantoea ananatis NFZ4 phytoene desaturase mutant to I50 for wild-type Erwinia uredovora phytoene desaturase by cellular assay.
Assay [4] relates to Pantoea ananatis. As to the kind of experiment: Resistance factor, ratio of I50 for Pantoea ananatis NFZ20 phytoene desaturase mutant to I50 for wild-type Erwinia uredovora phytoene desaturase by cell-free assay.
For assay [5], the system named is Pantoea ananatis. As to the kind of experiment: Resistance factor, ratio of I50 for Pantoea ananatis NFZ20 phytoene desaturase mutant to I50 for wild-type Erwinia uredovora phytoene desaturase by cellular assay.
In assay [6] the test system is Pantoea ananatis. As to the kind of experiment: Resistance factor, ratio of I50 for Pantoea ananatis NFZ42 phytoene desaturase mutant to I50 for wild-type Erwinia uredovora phytoene desaturase by cell-free assay.
Assay [7] relates to Pantoea ananatis. In words: Resistance factor, ratio of I50 for Pantoea ananatis NFZ42 phytoene desaturase mutant to I50 for wild-type Erwinia uredovora phytoene desaturase by cellular assay.
Assay [8] concerns Pantoea ananatis. As to the kind of experiment: Resistance factor, ratio of I50 for Pantoea ananatis NFZ4 phytoene desaturase mutant to I50 for wild-type Erwinia uredovora phytoene desaturase by cell-free assay.

Consider `O=C(Nc1ccc(F)cc1F)c1cccnc1Oc1cccc(C(F)(F)F)c1` [DIFLUFENICAN], for which the figures for the IC50 in assay [1] and in assay [2] were 0.038 µM and above 100 µM, respectively.

Turning to `C=C(Cl)COc1cc(C)nc(NC(C)C)n1`, the IC50 in assay [1] is 4.5 µM; in assay [2] it was above 100 µM.

`O=c1c(-c2ccccc2)c[nH]cc1-c1cccc(C(F)(F)F)c1` [FLURIDONE]: the Ratio was found to be 4 in assay [3]; 8 in assay [4]; 8 in assay [5]; 1 in assay [6]; 0.5 in assay [7].

In the case of `CCOC(=O)C1=C(c2ccccc2)OC(CC)C(C)C1=O` (configuration not stated), the IC50 in assay [1] was 0.74 µM; in assay [2], above 100 µM.

In the case of `Nc1nc[nH]n1` [AMITROLE], the IC50 amounted to 68 µM in assay [1] and 72 µM in assay [2].

In the case of `CNC1=C(c2cccc(C(F)(F)F)c2)C(=O)C(c2ccccc2)O1` (configuration not stated) [FLURTAMONE], the IC50 was 0.047 µM in assay [1] and above 100 µM in assay [2].

For the compound `CNc1cnn(-c2cccc(C(F)(F)F)c2)c(=O)c1Cl` [NORFLURAZONE], the IC50 is 0.33 µM in assay [1] and above 100 µM in assay [2]. For the same compound, the Ratio came out at 24 in assay [3]; 12 in assay [4]; 20 in assay [5]; 15 in assay [8]; 23 in assay [6]; 40 in assay [7].

For `CCC(COc1cccc(C(F)(F)F)c1)OC(=O)NCCc1ccccc1` (configuration not stated), the IC50 in assay [1] was 1.3 µM; in assay [2], above 100 µM.

As to `CC1(C)CC(=O)C(C(=O)c2ccc(Cl)cc2[N+](=O)[O-])C(=O)C1`, the IC50 in assay [1] was 0.042 µM; in assay [2], 0.048 µM.

The record behind these values is ChEMBL document CHEMBL3045503, “Mode of Action of Herbicides Affecting Carotenogenesis” (J Pestic Sci, 1996).
